Experimental data as given in the supplement of paper PMC8612539.
Converted amounts (≈) assume the structure as drawn.

System: Escherichia coli
Assay: minimum inhibitory concentration (MIC)
Experimental: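 Broth microdilution MIC (Sensititre BOPO7F bovine plate, CLSI methods) of 19 antimicrobials against field isolates of P. multocida, M. haemolytica, H. somni (deep nasopharyngeal swabs) and E. coli, Enterococcus spp. (rectal swabs) from weaned dairy heifers. Incubation 16-24 h at 35 C. MIC is the lowest concentration preventing visible growth. Values with <= or > lie at the tested range limits. Trimethoprim-sulfamethoxazole is given as the trimethoprim component of a 1:19 mixture.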

CN[C@@H]1[C@H](O)[C@H](NC)[C@H]2O[C@@]3(O)C(=O)C[C@@H](C)O[C@H]3O[C@@H]2[C@H]1O [Spectinomycin]
Details | minimum inhibitory concentration [µg/mL]
isolate (source animal id): 8 | 16 (≈ 48.1 µM)
isolate (source animal id): 9 | > 64
isolate (source animal id): 10 | 64 (≈ 193 µM)
isolate (source animal id): 11 | 16 (≈ 48.1 µM)
isolate (source animal id): 12 | 32 (≈ 96.3 µM)
isolate (source animal id): 13 | 16 (≈ 48.1 µM)
isolate (source animal id): 14 | > 64
isolate (source animal id): 15 | 16 (≈ 48.1 µM)
isolate (source animal id): 16 | 16 (≈ 48.1 µM)
isolate (source animal id): 98 | 16 (≈ 48.1 µM)
isolate (source animal id): 99 | 16 (≈ 48.1 µM)
isolate (source animal id): 100 | ≤ 8
isolate (source animal id): 101 | > 64
isolate (source animal id): 102 | 16 (≈ 48.1 µM)
isolate (source animal id): 103 | > 64
isolate (source animal id): 104 | 16 (≈ 48.1 µM)
isolate (source animal id): 105 | 16 (≈ 48.1 µM)
isolate (source animal id): 106 | 32 (≈ 96.3 µM)
isolate (source animal id): 107 | 16 (≈ 48.1 µM)
isolate (source animal id): 108 | 16 (≈ 48.1 µM)
isolate (source animal id): 109 | 16 (≈ 48.1 µM)
isolate (source animal id): 110 | ≤ 8
isolate (source animal id): 111 | 16 (≈ 48.1 µM)
isolate (source animal id): 112 | 16 (≈ 48.1 µM)
isolate (source animal id): 113 | 16 (≈ 48.1 µM)
isolate (source animal id): 114 | 16 (≈ 48.1 µM)
isolate (source animal id): 115 | > 64
isolate (source animal id): 116 | 16 (≈ 48.1 µM)
isolate (source animal id): 117 | > 64
isolate (source animal id): 118 | 16 (≈ 48.1 µM)
isolate (source animal id): 119 | > 64
isolate (source animal id): 120 | > 64
isolate (source animal id): 121 | > 64
isolate (source animal id): 122 | > 64
isolate (source animal id): 123 | 16 (≈ 48.1 µM)
isolate (source animal id): 124 | > 64
isolate (source animal id): 125 | > 64
isolate (source animal id): 126 | > 64
isolate (source animal id): 127 | > 64
isolate (source animal id): 128 | > 64
isolate (source animal id): 129 | 16 (≈ 48.1 µM)
isolate (source animal id): 130 | > 64
isolate (source animal id): 131 | 16 (≈ 48.1 µM)
isolate (source animal id): 132 | 16 (≈ 48.1 µM)
isolate (source animal id): 133 | > 64
isolate (source animal id): 134 | 16 (≈ 48.1 µM)
isolate (source animal id): 135 | 16 (≈ 48.1 µM)
isolate (source animal id): 136 | 16 (≈ 48.1 µM)
isolate (source animal id): 137 | 16 (≈ 48.1 µM)
isolate (source animal id): 138 | > 64
isolate (source animal id): 139 | > 64
isolate (source animal id): 140 | 16 (≈ 48.1 µM)
isolate (source animal id): 141 | > 64
isolate (source animal id): 142 | 16 (≈ 48.1 µM)
isolate (source animal id): 143 | > 64
isolate (source animal id): 144 | 16 (≈ 48.1 µM)
isolate (source animal id): 145 | > 64
isolate (source animal id): 146 | 16 (≈ 48.1 µM)
isolate (source animal id): 147 | > 64
isolate (source animal id): 148 | 16 (≈ 48.1 µM)
isolate (source animal id): 149 | 16 (≈ 48.1 µM)
isolate (source animal id): 150 | > 64
isolate (source animal id): 151 | 16 (≈ 48.1 µM)
isolate (source animal id): 152 | 16 (≈ 48.1 µM)
isolate (source animal id): 153 | 16 (≈ 48.1 µM)
isolate (source animal id): 154 | 16 (≈ 48.1 µM)
isolate (source animal id): 155 | > 64
isolate (source animal id): 156 | > 64
isolate (source animal id): 157 | > 64
isolate (source animal id): 158 | 16 (≈ 48.1 µM)
isolate (source animal id): 159 | ≤ 8
isolate (source animal id): 160 | > 64
isolate (source animal id): 161 | > 64
isolate (source animal id): 162 | 16 (≈ 48.1 µM)
isolate (source animal id): 163 | 16 (≈ 48.1 µM)
isolate (source animal id): 164 | 16 (≈ 48.1 µM)
isolate (source animal id): 165 | > 64
isolate (source animal id): 166 | ≤ 8
isolate (source animal id): 167 | 16 (≈ 48.1 µM)
isolate (source animal id): 168 | 16 (≈ 48.1 µM)
isolate (source animal id): 169 | 16 (≈ 48.1 µM)
isolate (source animal id): 170 | 16 (≈ 48.1 µM)
isolate (source animal id): 171 | 16 (≈ 48.1 µM)
isolate (source animal id): 172 | 16 (≈ 48.1 µM)
isolate (source animal id): 173 | 16 (≈ 48.1 µM)
isolate (source animal id): 174 | 16 (≈ 48.1 µM)
isolate (source animal id): 175 | 16 (≈ 48.1 µM)
isolate (source animal id): 176 | 16 (≈ 48.1 µM)
isolate (source animal id): 177 | 32 (≈ 96.3 µM)
isolate (source animal id): 178 | 16 (≈ 48.1 µM)
isolate (source animal id): 179 | 16 (≈ 48.1 µM)
isolate (source animal id): 180 | 16 (≈ 48.1 µM)
isolate (source animal id): 181 | > 64
isolate (source animal id): 182 | 16 (≈ 48.1 µM)
isolate (source animal id): 183 | 16 (≈ 48.1 µM)
isolate (source animal id): 184 | 16 (≈ 48.1 µM)
isolate (source animal id): 185 | 16 (≈ 48.1 µM)
isolate (source animal id): 186 | 16 (≈ 48.1 µM)
isolate (source animal id): 187 | 32 (≈ 96.3 µM)
isolate (source animal id): 188 | 32 (≈ 96.3 µM)
